{"source": "ChEMBL document CHEMBL1649539", "about": "“Pharmacokinetics-pharmacodynamics of pyrazinamide in a novel in vitro model of tuberculosis for sterilizing effect: a paradigm for faster assessment of new antituberculosis drugs” (Antimicrob Agents Chemother, 2009)", "key": {"[1]": {"assay": "Volume of distribution in Mycobacterium tuberculosis H37Rv", "type": "ADME, organism-based", "conditions": "in vivo"}, "[2]": {"assay": "Elimination rate constant in Mycobacterium tuberculosis H37Rv", "type": "ADME"}, "[3]": {"assay": "Absorption rate constant in Mycobacterium tuberculosis H37Rv", "type": "ADME"}, "[4]": {"assay": "Clearance in Mycobacterium tuberculosis H37Rv", "type": "ADME"}, "[5]": {"tested_on": "Mycobacterium tuberculosis", "assay": "Antimycobacterial activity against Mycobacterium tuberculosis H37Rv isolated from patient with tuberculosis assessed as bacterial load per day at >= 15 mg/kg, po after 4 days", "type": "functional"}, "[6]": {"tested_on": "Mycobacterium tuberculosis", "assay": "Antimycobacterial activity against Mycobacterium tuberculosis H37Rv isolated from patient with tuberculosis assessed as bacterial load per day at 15 to 30 mg/kg, po after 2.5 to 3 weeks", "type": "functional"}, "[7]": {"tested_on": "Mycobacterium tuberculosis", "assay": "Antimycobacterial activity against Mycobacterium tuberculosis H37Rv isolated from patient with tuberculosis at >= 15 mg/kg, po after 14 to 21 days", "type": "functional, organism-based", "set-up": "dose 15 mg/kg"}, "[8]": {"assay": "Ratio of AUC (0 to 24 hrs) to MIC associated with 0.5 log10CFU/ml bacterial count in patient infected with Mycobacterium tuberculosis H37Rv", "type": "functional"}, "[9]": {"assay": "Ratio of AUC (0 to 24 hrs) to MIC associated with 1 log10CFU/ml bacterial count in patient infected with Mycobacterium tuberculosis H37Rv", "type": "functional"}, "[10]": {"assay": "Ratio of AUC (0 to 24 hrs) to MIC associated with 2 log10CFU/ml bacterial count in patient infected with Mycobacterium tuberculosis H37Rv", "type": "functional"}}, "note": "Activity calls are given as the source filed them. The calls are words filed in the database; no cut-off is given here.", "data": [{"smiles": "NC(=O)c1cnccn1", "note": "[PYRAZINAMIDE]", "values": [{"measurement": "Vd", "setting": "[1]", "result": 1.68, "unit": "L/kg"}, {"measurement": "k el", "setting": "[2]", "result": "1.67e-05", "unit": "s⁻¹"}, {"measurement": "Ka", "setting": "[3]", "result": 3.45, "unit": "h⁻¹"}, {"measurement": "clearance", "setting": "[4]", "result": 1.67, "unit": "mL/min/kg"}, {"measurement": "log10CFU/ml/day", "setting": "[5]", "result": 0.05}, {"measurement": "log10CFU/ml/day", "setting": "[6]", "result": 0.09}, {"measurement": "Activity", "setting": "[7]", "result": "inactive"}, {"measurement": "log10CFU/ml", "setting": "[8]", "result": 9.43}, {"measurement": "log10CFU/ml", "setting": "[9]", "result": 20.26}, {"measurement": "log10CFU/ml", "setting": "[10]", "result": 66.67}]}]}
